# Experiments:
# Format in all cases: physicochemical
# [1] = Excipient appropriate to lyophilization 1: re-solubility immediately after lyophilization; details: KRN7000 200 µg/ml, Polysorbate 20 0.5%
# Description: A variety of monosaccharides and disaccharides were used for examination of excipients of the lyophilized preparation. In this context, the active component (KRN7000) was set at the concentration of 200 µg/ml, and Polysorbate 20 which is used only in a limited amount from the viewpoint of safety was set at the concentration of 0.5% in the following examination.
# (§1) First, Polysorbate 20 was dissolved in distilled water in a concentration of 0.5%, and the saccharides were dissolved in such concentrations as listed in Table 6. Next, 20 mg of the active component (KRN7000) was weighed and stirred in 100 ml of the solvents in a heated bath to 80°C for 20 minutes in order to form a solution. After cooling with running water, the mixture was filtered through a 0.22 µm filter, and transparent colorless glass vials having a volume of 5 ml were charged with a 1 ml portion of each of a variety of solutions thus obtained and subjected to lyophilization. Lyophilization was carried out under the condition of preliminary freezing at -40°C for 2 hours and drying at -20°C for 24 hours, 10°C for 12 hours, and finally at 25°C for 5 hours to give the lyophilized product. The degree of vacuum was set at 0.1 Torr or less during drying step.
# After the lyophilization step, the lyophilized composition was reconstituted in 1 ml of distilled water for injection, left standing for 30 minutes, and solubility was judged when the foams generated on reconstitution disappeared.
# (§2) The solubility was judged by cleaning the outside of the vial and placing it beneath the white light source in a darkroom for observation with naked eye at the position of a luminous intensity of about 5,000 lux. When the sample was clear with no precipitates, it was judged that the active component was dissolved.
# [2] = Additives for improving re-solubility during storage, mannitol as excipient; details: lyophilized, KRN7000 200 µg/ml, Polysorbate 20 0.5%, 25°C
# Description: as §1, with “mannitol and a variety of additives” for “the saccharides were dissolved in”, “8.” for “6.”
# After the lyophilization step, the lyophilized composition was stored at 25°C. After storage for 1 month, the lyophilized composition was reconstituted in 1 ml of distilled water for injection, left standing for 30 minutes, and solubility was judged when the foams generated on reconstitution disappeared. The samples judged in solution were further stored, and judged again of their solubility after 4 months.
# as §2
# [3] = Additives for improving re-solubility during storage, sucrose as excipient; details: lyophilized, KRN7000 200 µg/ml, Polysorbate 20 0.5%, Sucrose 9.6%
# Description: as §1, with “sucrose and a variety of additives” for “the saccharides were dissolved in”, “9.” for “6.”
# After the lyophilization step, the lyophilized composition thus obtained was stored at 25°C or 50°C, or at both of these temperatures. After storage at 25°C for 1 month or at 50°C for 3 days, the lyophilized composition was reconstituted in 1 ml of distilled water for injection, left standing for 30 minutes, and solubility was judged when the foams generated on reconstitution disappeared. The samples judged in solution were further stored, and judged again of their solubility after storage at 25°C for 4 months or at 50°C for 2 weeks.
# as §2
compound,measurement,setting,value
"CCCCCCCCCCCCCCCCCCCCCCCCCC(=O)N[C@@H](CO[C@H]1O[C@H](CO)[C@H](O)[C@H](O)[C@H]1O)[C@H](O)[C@H](O)CCCCCCCCCCCCCC [KRN7000, (2S,3S,4R)-1-(α-D-galactopyranosyloxy)-2-hexacosanoylamino-3,4-octadecanediol]",Re-solubility immediately after lyophilization,[1]; Fructose 5%,+ (+ not dissolved (or deposited))
same,Re-solubility immediately after lyophilization,[1]; Fructose 10%,+ (+ not dissolved (or deposited))
same,Re-solubility immediately after lyophilization,[1]; Glucose 5%,- (- dissolved)
same,Re-solubility immediately after lyophilization,[1]; Glucose 10%,+ (+ not dissolved (or deposited))
same,Re-solubility immediately after lyophilization,[1]; Lactose 5%,+ (+ not dissolved (or deposited))
same,Re-solubility immediately after lyophilization,[1]; Lactose 10%,+ (+ not dissolved (or deposited))
same,Re-solubility immediately after lyophilization,[1]; Maltose 1.5%,+ (+ not dissolved (or deposited))
same,Re-solubility immediately after lyophilization,[1]; Maltose 3%,+ (+ not dissolved (or deposited))
same,Re-solubility immediately after lyophilization,[1]; Mannitol 5%,+ (+ not dissolved (or deposited))
same,Re-solubility immediately after lyophilization,[1]; Mannitol 10%,- (- dissolved)
same,Re-solubility immediately after lyophilization,[1]; Sorbitol 5%,+ (+ not dissolved (or deposited))
same,Re-solubility immediately after lyophilization,[1]; Sorbitol 10%,+ (+ not dissolved (or deposited))
same,Re-solubility immediately after lyophilization,[1]; Sucrose 4.8%,- (- dissolved)
same,Re-solubility immediately after lyophilization,[1]; Sucrose 9.6%,- (- dissolved)
same,Re-solubility immediately after lyophilization,[1]; Xylitol 4.3%,+ (+ not dissolved (or deposited))
same,Re-solubility immediately after lyophilization,[1]; Xylitol 8.6%,+ (+ not dissolved (or deposited))
same,Re-solubility after storage (by naked eye),"[2]; Mannitol 10%, Sodium deoxycholate, 1%, 1 month",- (- dissolved)
same,Re-solubility after storage (by naked eye),"[2]; Mannitol 10%, Sodium deoxycholate, 1%, 4 months",- (- dissolved)
same,Re-solubility after storage (by naked eye),"[2]; Mannitol 10%, no additive, 1 month",- (- dissolved)
same,Re-solubility after storage (by naked eye),"[2]; Mannitol 10%, no additive, 4 months",+ (+ not dissolved (or deposited))
same,Re-solubility after storage (by naked eye),"[2]; Mannitol 15%, Glycerol, 0.1%, 1 month",+ (+ not dissolved (or deposited))
same,Re-solubility after storage (by naked eye),"[2]; Mannitol 15%, Glycerol, 0.1%, 4 months",+ (+ not dissolved (or deposited))
same,Re-solubility after storage (by naked eye),"[2]; Mannitol 15%, Glycerol, 1%, 1 month",+ (+ not dissolved (or deposited))
same,Re-solubility after storage (by naked eye),"[2]; Mannitol 15%, Glycerol, 1%, 4 months",+ (+ not dissolved (or deposited))
same,Re-solubility after storage (by naked eye),"[2]; Mannitol 15%, PEG400, 1%, 1 month",+ (+ not dissolved (or deposited))
same,Re-solubility after storage (by naked eye),"[2]; Mannitol 15%, PEG400, 1%, 4 months",+ (+ not dissolved (or deposited))
same,Re-solubility after storage (by naked eye),"[2]; Mannitol 15%, Sodium deoxycholate, 1%, 1 month",+ (+ not dissolved (or deposited))
same,Re-solubility after storage (by naked eye),"[2]; Mannitol 15%, Sodium deoxycholate, 1%, 4 months",+ (+ not dissolved (or deposited))
same,Re-solubility after storage (by naked eye),"[2]; Mannitol 15%, no additive, 1 month",+ (+ not dissolved (or deposited))
same,Re-solubility after storage (by naked eye),"[2]; Mannitol 15%, no additive, 4 months",+ (+ not dissolved (or deposited))
same,Re-solubility after storage (by naked eye),"[3]; Arginine, 0.1%, 50°C, 3 days",+ (+ not dissolved (or deposited))
same,Re-solubility after storage (by naked eye),"[3]; Glycerol, 1%, 25°C, 1 month",+ (+ not dissolved (or deposited))
same,Re-solubility after storage (by naked eye),"[3]; Glycine, 0.1%, 50°C, 3 days",+ (+ not dissolved (or deposited))
same,Re-solubility after storage (by naked eye),"[3]; Glycine, 1%, 50°C, 3 days",+ (+ not dissolved (or deposited))
same,Re-solubility after storage (by naked eye),"[3]; Histidine, 2%, 50°C, 2 weeks",- (- dissolved)
same,Re-solubility after storage (by naked eye),"[3]; Histidine, 2%, 50°C, 3 days",- (- dissolved)
same,Re-solubility after storage (by naked eye),"[3]; Pluronic F68, 0.1%, 25°C, 1 month",- (- dissolved)
same,Re-solubility after storage (by naked eye),"[3]; Pluronic F68, 0.1%, 25°C, 4 month",+ (+ not dissolved (or deposited))
same,Re-solubility after storage (by naked eye),"[3]; Pluronic F68, 1%, 25°C, 1 month",- (- dissolved)
same,Re-solubility after storage (by naked eye),"[3]; Pluronic F68, 1%, 25°C, 4 month",+ (+ not dissolved (or deposited))
same,Re-solubility after storage (by naked eye),"[3]; Propylene glycol, 1%, 25°C, 1 month",+ (+ not dissolved (or deposited))
same,Re-solubility after storage (by naked eye),"[3]; Sodium deoxycholate, 0.1%, 25°C, 1 month",- (- dissolved)
same,Re-solubility after storage (by naked eye),"[3]; Sodium deoxycholate, 0.1%, 25°C, 4 month",+ (+ not dissolved (or deposited))
same,Re-solubility after storage (by naked eye),"[3]; Sodium deoxycholate, 1%, 25°C, 1 month",- (- dissolved)
same,Re-solubility after storage (by naked eye),"[3]; Sodium deoxycholate, 1%, 25°C, 4 month",- (- dissolved)
same,Re-solubility after storage (by naked eye),"[3]; Sodium deoxycholate, 1%, 50°C, 2 weeks",- (- dissolved)
same,Re-solubility after storage (by naked eye),"[3]; Sodium deoxycholate, 1%, 50°C, 3 days",- (- dissolved)
same,Re-solubility after storage (by naked eye),"[3]; no additive, 25°C, 1 month",- (- dissolved)
same,Re-solubility after storage (by naked eye),"[3]; no additive, 25°C, 4 month",+ (+ not dissolved (or deposited))
same,Re-solubility after storage (by naked eye),"[3]; no additive, 50°C, 3 days",+ (+ not dissolved (or deposited))

# Reference: patent EP1016409B1, “FREEZE DRIED COMPOSITION COMPRISING GLYCOSPHINGOLIPIDS” (KIRIN BEER KABUSHIKI KAISHA, priority 1997, dated 1998)
